The values that follow are results of earlier work, collected in patent US10350188B2, “Use of Neu1 sialidase inhibitors in the treatment of cancer” (priority 2011, dated 2019).

Data set [1] has as its system TLR4/MD2. The following applies: HEK293 cells stably transfected with TLR4/MD2; cited from earlier work.
For data set [2], the target named is T1, Neu1 sialidase (Homo sapiens, UniProt Q99519).
T1 construct: using lysates from mature dendritic cells; host or cells: lysates from mature dendritic cells
Conditions: 2 mM; lysates from mature dendritic cells; cited from earlier work.

Data set [3] deals with Neu1 sialidase. Conditions: NGF treated live TrkA-expressing cells; cited from earlier work.
Data set [4] relates to Neu3 sialidase. The following applies: 2 mM; lysates from mature dendritic cells; cited from earlier work.
The target of data set [5] is T2, sialidase activity associated with TLR ligand treated live BMC-2 macrophage cells (Mus musculus, UniProt O35657).
T2 construct: endogenous in cells; host or cells: BMC-2 macrophage cells
Conditions: 1-2 mM, compared to LPS positive control; cited from earlier work.

Data set [6] deals with T3, human Neu3 sialidase (Homo sapiens, UniProt Q9UQ49).
T3 sequence (Q9UQ49 1-428): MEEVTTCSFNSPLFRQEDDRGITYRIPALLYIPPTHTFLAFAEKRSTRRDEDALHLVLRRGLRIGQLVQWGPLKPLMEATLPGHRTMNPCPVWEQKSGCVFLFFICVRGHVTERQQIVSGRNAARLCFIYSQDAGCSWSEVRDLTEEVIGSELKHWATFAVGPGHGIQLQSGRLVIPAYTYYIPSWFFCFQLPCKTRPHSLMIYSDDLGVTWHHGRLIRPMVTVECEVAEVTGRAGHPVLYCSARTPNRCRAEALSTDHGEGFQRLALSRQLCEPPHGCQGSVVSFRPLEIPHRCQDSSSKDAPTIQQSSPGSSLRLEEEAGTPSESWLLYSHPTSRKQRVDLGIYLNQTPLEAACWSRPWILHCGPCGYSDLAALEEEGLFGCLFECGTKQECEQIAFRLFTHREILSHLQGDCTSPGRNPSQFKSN
Conditions: in the micromolar range; cited from earlier work.

Take “galectin-1: α-2,3-sialyl specific galectin-1”: the “Inhibition of TLR ligand-induced NFκB responses (in words)” value in data set [1] is “significantly inhibited”.

As for `CC(=O)N[C@H]1[C@H]([C@H](O)[C@H](O)CO)OC(C(=O)O)=C[C@@H]1N=C(N)N` [zanamivir, 4-guanidino-Neu5Ac2en], the entries for the “Inhibition of Neu1 sialidase activity (in words)” value in data set [2] and in data set [3] were “completely inhibited” and “limited inhibitory effect”, respectively. Besides, the “Inhibition of Neu3 sialidase activity (in words)” value in data set [4] is given as “completely inhibited”. In addition, in data set [5], the “Inhibition of LPS induced sialidase activity (in words)” value is recorded as “limited effect”. For the same compound, in data set [6], the “Inhibition of human Neu3 sialidase (in words)” value was “significantly inhibited”.
